Legend:
db/db mice [1] = assay: Wound closure, circular incision wounds, diabetic db/db mice, topical treatment; assay type: in vivo, mouse
Method: FIG. 1 illustrates wound closure observed in the db/db mouse models topically treated with a 1 mM saline solution of 1,4-anhydro-4-seleno-D-talitol (selenosugar) (b) and a non-selenium control sugar, 1,4-anydro-D-talitol (a).
(§1) In the experimental testing according to the present invention, pairs of circular incision wounds on the backs of wildtype C57/BL6 and db^−/db^− mice (n=12 each) were treated daily with a selenosugar according to the current invention or vehicle, topically for 10 days. Wound closure, vascular perfusion and tissue histology were assessed.

db/db mice [2] = assay: Vascular perfusion of wounds by Doppler imaging, diabetic mice; assay type: in vivo; conditions: diabetic mouse wounds, p<0.05, FIG. 2
Description: FIG. 2 illustrates vascular perfusion measured by Doppler imaging and corresponding to the selenosugar treated wound (1) and the untreated control wound (2) of the db^−/db^− mouse model of FIG. 1 (where * indicates p, 0.05, and n=6). Doppler imaging is a non-invasive technique used to evaluate blood flow velocity with red blood cells as the moving target;
as §1

db/db mice [3] = assay: Tissue histology of diabetic wounds; assay type: in vivo, mouse; conditions: diabetic wounds vs vehicle
Description: FIGS. 3 to 12 illustrate comparative tissue histology for (a) the wildtype and (b) db/db mouse models, both (i) non-treated mice, (ii) mice treated for 5 days and (iii) mice treated for 10 days. The figures also illustrate plots against time in days for the following wound parameters for (i), (ii) and (iii) (where * indicates p<0.05, ** indicates p<0.01, *** indicates p<0.001);
as §1

wildtype mice = assay: Wound healing comparison of selenosugar with DHSred at the same dose, wildtype mice; assay type: in vivo, mouse; conditions: for Wound healing after topical application / Scar tissue formed during wound healing: same dose; for Wound healing after topical application / Pus formation in wound: FIG. 16; for Scar tissue formed during wound healing: FIG. 17; for Pus formation in wound: topical
Description: FIG. 15 is a plot illustrating the performance of a selenosugar according to the present invention (1,4-anhydro-4-seleno-D-talitol) (8) against a similar water-soluble selenium compound that is not sugar derived (DHSred) (10) in non-diabetic (wt) mice over time. FIG. 15a illustrates % wound closure in terms of the wound size and FIG. 15b illustrates blood flow intensity (Doppler measurement) in arbitrary units where ** indicates p<0.01, *** p<0.001 and **** p<0.0001 and N=6;
FIG. 16 illustrates a wound treated with a selenosugar according to the present invention (ii) and a wound treated with DHSred (i) at the same dose.
FIG. 17 illustrates typical differences in scar tissue that forms during wound healing in wildtype mice having a wound treated with a selenosugar according to the present invention (ii) and a wound treated with DHSred (i) at the same dose.

[4] = system: indomethacin-induced stomach ulcers in mice; conditions: Chakraborty et al; cited from earlier work
wildtype C57/BL6 mice = assay: Wound closure, circular incision wounds, wildtype mice, topical treatment; assay type: in vivo, mouse
Method: as §1

[5] = wildtype mice, listed as DHSred

Molecule: 1,4-anhydro-4-seleno-D-talitol [Formula II]
- Wound closure relative to control db/db mice (db/db mice [1]; day 4): 3 fold
- Wound closure (db/db mice [1]; day 4, p<0.001 vs control db/db mice): 32%
- Wound closure relative to control db/db mice (db/db mice [1]; day 10): 2 fold
- Wound closure (db/db mice [1]; day 10, p<0.0001 vs control db/db mice): 83%
- Vascular perfusion (Doppler imaging) (db/db mice [2]): improved vascular perfusion
- IL-6 level (tissue histology) (db/db mice [3]; FIG. 4, p<0.05): decreased
- Elastin level (tissue histology) (db/db mice [3]; FIG. 6, p<0.01): increased
- MCP-1 level (tissue histology) (db/db mice [3]; FIG. 9, p<0.001): decreased
- MPO level (tissue histology) (db/db mice [3]; FIG. 10, p<0.001): decreased
- vWF level (tissue histology) (db/db mice [3]; FIG. 12, p<0.01): decreased

Molecule: O[C@@H]1C[Se]C[C@H]1O (racemic) [Formula III, DL-trans-3,4-dihydroxy-1-selenolane]
- Wound healing after topical application (wildtype mice; wildtype mice): reduced wound healing
- Wound healing after topical application (wildtype mice; [5]): inferior healing
- Scar tissue formed during wound healing (wildtype mice; wildtype mice): pronounced scar tissue build up
- Pus formation in wound (wildtype mice; wildtype mice): observable pus formation
- Pus formation in wound (wildtype mice; [5]): development of pus
- Healing of indomethacin-induced stomach ulcers [4]: accelerate healing

Molecule: OC[C@@H](O)[C@@H]1[Se]C[C@@H](O)[C@H]1O [Formula II, 1,4-anhydro-4-seleno-D-talitol]
- Wound closure relative to controls (wildtype C57/BL6 mice; day 4): 2 fold
- Wound closure (wildtype C57/BL6 mice; day 4, daily topical treatment, p<0.05 vs controls): 32%
- Wound closure (wildtype C57/BL6 mice; day 10, daily topical treatment, p<0.01 vs controls): 82%
- Inflammatory response during tissue repair (wildtype mice; FIG. 16 and histology): anti-inflammatory response
- Tissue repair during wound healing, formula II vs formula III (wildtype mice; wildtype mice, FIG. 15): superior
- Wound healing after topical application (wildtype mice; wildtype mice): improved wound closure and healing
- Scar tissue formed during wound healing (wildtype mice; wildtype mice): significantly less scar tissue

From patent US9895309B2, “Selenosugars for skin tissue repair” (SELENO THERAPEUTICS PTY LTD., priority 2014, dated 2018)
